One may read the inhibition as the relative decrease from the control value, in per cent.

Where a SMILES comes first, the peptide text is derived from it. [ ]: non-standard residue; d: D form.

Sequence of BTK (Q06187 402-655 limits assumed): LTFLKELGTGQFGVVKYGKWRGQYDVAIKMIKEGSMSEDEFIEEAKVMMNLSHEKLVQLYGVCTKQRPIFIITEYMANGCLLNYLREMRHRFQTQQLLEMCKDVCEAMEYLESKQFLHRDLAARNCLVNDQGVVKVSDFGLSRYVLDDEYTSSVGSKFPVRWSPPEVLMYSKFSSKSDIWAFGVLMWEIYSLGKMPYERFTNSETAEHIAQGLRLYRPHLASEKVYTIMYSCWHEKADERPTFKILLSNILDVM

One assay concerns the target BTK (Homo sapiens, UniProt Q06187). The experiment in a line: biochemical. To be noted: read-out: BTK inhibition (%).
`Cc1ccc(NC(=S)NNc2c([N+](=O)[O-])cc(C(F)(F)F)cc2[N+](=O)[O-])cc1Cl` [PCM-0215660]: the inhibition at 10 µM was found to be 90.3%.

Turning to `CCN1C[C@]2(OC(=O)c3ccccc3NC(C)=O)CC[C@H](OC)[C@@]34[C@@H]2C[C@@H]([C@@H]13)[C@@]1(O)C[C@H](OC)[C@H]2C[C@@H]4[C@]1(O)[C@H]2OC` [PCM-0094835], the inhibition at 10 µM came out at 21%.

The assay is the same for the next values; noted with them: read-out: BTK inhibition (%), 0.75 uM BTK, […] probe 3l, 15 min preincubation.
`Oc1ccc2c(c1)OCO2` [PCM-0214880]: the inhibition at 10 µM is -3.9%.

`C=C(C)[C@@H]1CC[C@]2(C)CC[C@]3(C)[C@H](CC[C@@H]4[C@@]5(C)CC[C@H](O)C(C)(C)[C@@H]5CC[C@]43C)[C@@H]12` [PCM-0215902]: the inhibition at 10 µM is -9.4%.

Take `N#Cc1cnc(Nc2cc(NC[C@H]3CNCCO3)c(C(F)(F)F)cn2)cn1` [PCM-0214576]: the inhibition at 10 µM was -0.7%.

With `O=c1cc(-c2ccc(O)cc2)oc2cc(O)c([C@@H]3O[C@H](CO)[C@@H](O)[C@H](O)[C@H]3O)c(O)c12` [PCM-0216601], the inhibition at 10 µM is 11.6%.

With `Cn1cc(C(=O)[C@@H]2CCc3nc[nH]c3C2)c2ccccc21` [PCM-0214919], the inhibition at 10 µM is -3.1%.

As to `CC(=O)O/N=C1/C(c2c(O)[nH]c3cc(Br)ccc23)=Nc2ccccc21` [PCM-0215536], the inhibition at 10 µM was determined as 60.7%.

As to `COc1ccc(S(=O)(=O)Nc2cccnc2Nc2ccc(O)cc2)cc1` [PCM-0095016], the inhibition at 10 µM is -14.5%.

In the case of `O=c1cc[nH]c(=S)[nH]1` [PCM-0090803], the inhibition at 10 µM was found to be 8.6%.

Take `CCOc1ccc(NC(C)=O)cc1` [PCM-0086095]: the inhibition at 10 µM is 5.5%.

Take `Cc1cc(C)nc(NC(=S)N2CCN(Cc3ccc(C(F)(F)F)cc3)CC2)c1` [PCM-0215867]: the inhibition at 10 µM was -17%.

On to `Nc1nonc1C(=Nc1ccc(F)c(Cl)c1)NO` [PCM-0095795], for which the inhibition at 10 µM was -3.1%.

On to `O=C1c2c(O)ccc(O)c2C(=O)c2c(NCCNCCO)ccc(NCCNCCO)c21` [PCM-0065547], for which the inhibition at 10 µM is 51%.

For the compound `CCN1CCN(C(=O)Cc2ccc(Nc3ncc(F)c(Nc4ccc(C(=O)Nc5ccccc5Cl)cc4)n3)cc2)CC1` [PCM-0095121], the inhibition at 10 µM came out at 40.7%.

Consider `CC(C)=CCC[C@](C)(O[C@@H]1O[C@H](CO)[C@@H](O)[C@H](O)[C@H]1O)[C@H]1CC[C@]2(C)[C@@H]1[C@H](O)C[C@@H]1[C@@]3(C)CC[C@H](O)C(C)(C)[C@@H]3[C@@H](O)C[C@]12C` [PCM-0216532], for which the inhibition at 10 µM is -11.6%.

As for `COc1ccc(-c2cc(=O)c3c(OC)c(OC)c(OC)c(OC)c3o2)cc1` [PCM-0086738], the inhibition at 10 µM was -26.9%.

Turning to `COc1cc(N2CCC(N)CC2)ccc1Nc1ncc(Cl)c(-c2c[nH]c3ccccc23)n1` [PCM-0215211], the inhibition at 10 µM was 95.9%.

For the compound `C[N+](C)(C)CC(O)CC(=O)O` (stereo not drawn) [PCM-0090641], the inhibition at 10 µM is -11.7%.

As to `O=c1[nH]cnc2[nH]ncc12` [PCM-0064482], the inhibition at 10 µM turned out to be 18.7%.

For the compound `CNc1cccc(CCOc2ccc3c(c2)CN(CC(F)(F)F)C(=O)[C@H](CC(=O)O)C3)n1` [PCM-0215443], the inhibition at 10 µM turned out to be 8.5%.

As for `COc1cn(-c2ccc(-n3cccn3)cc2F)nc(-c2ccnn2-c2ccccc2)c1=O` [PCM-0215765], the inhibition at 10 µM is 2.3%.

In the case of `CCN(CC)CCOC(=O)c1ccc(N)cc1Cl` [PCM-0214797], the inhibition at 10 µM was -1.6%.

Consider `O=C(NO)c1cccc(C(=O)NCCc2ccccc2)c1` [PCM-0215456], for which the inhibition at 10 µM was 10%.

For the compound `O=C(N[C@H](CO)[C@H](O)c1ccc([N+](=O)[O-])cc1)C(Cl)Cl` [PCM-0214645], the inhibition at 10 µM was -8.6%.

As to `COc1cc(C=O)c([N+](=O)[O-])cc1OC` [PCM-0216182], the inhibition at 10 µM was -13.9%.

With `C=CC(=O)Nc1cccc(Oc2nc(Nc3ccc(N4CCN(C)CC4)cc3)ncc2Cl)c1` [PCM-0095023], the inhibition at 10 µM came to 91.7%.

For `O=C(/C=C/c1ccc(O)cc1)C1=C(O)[C@](O)([C@@H]2O[C@H](CO)[C@@H](O)[C@H](O)[C@H]2O)C(O)=C(/C=C2/C(=O)C(C(=O)/C=C/c3ccc(O)cc3)=C(O)[C@@](O)([C@@H]3O[C@H](CO)[C@@H](O)[C@H](O)[C@H]3O)C2=O)C1=O` [PCM-0215966], the inhibition at 10 µM was -1.5%.

`O=C(NCc1cccc(O)c1)Nc1nc(-c2ccncc2)cs1` [PCM-0095724]: the inhibition at 10 µM is -4.8%.

On to `O=C1c2c(O)cc(O)cc2O[C@H](c2cc(O)c(O)c(O)c2)[C@H]1O` [PCM-0094847], for which the inhibition at 10 µM is -9%.

With `O=C(O)c1ccc2c(c1)C(=O)c1ccccc1C2=O` [PCM-0216619], the inhibition at 10 µM was determined as 9.3%.

Regarding `NC(=O)[C@@H]1CCCN1C(=O)[C@H](Cc1cnc[nH]1)NC(=O)[C@@H]1CCC(=O)N1` [PCM-0214836], the inhibition at 10 µM is -5.4%.

Consider `CSCC[C@H](N)C(=O)O` [PCM-0216223], for which the inhibition at 10 µM is -0.9%.

`O=c1oc2cc(O)ccc2s1` [PCM-0090709]: the inhibition at 10 µM was -13.2%.

For the compound `Nc1nc(CC(=O)Nc2ccc(CCNC[C@H](O)c3ccccc3)cc2)cs1` [PCM-0095557], the inhibition at 10 µM was 3.9%.

On to `Cn1cc(-c2cnn3c(N)c(Br)c([C@@H]4CCCNC4)nc23)cn1` [PCM-0095786], for which the inhibition at 10 µM is -6.8%.

For `COc1ccccc1Oc1c(NS(=O)(=O)c2ccc(C(C)(C)C)cc2)nc(-c2ncccn2)nc1OCCO` [PCM-0086316], the inhibition at 10 µM is -7.8%.

Regarding `COc1ccc(CCC(=O)Nc2nc3ccc(Cl)cc3s2)cc1OC` [PCM-0095584], the inhibition at 10 µM was -0.8%.

Consider `O=c1ncn2nc(Sc3ccc(F)cc3F)ccc2c1-c1c(Cl)cccc1Cl` [PCM-0214781], for which the inhibition at 10 µM was 40%.

In the case of `Cc1cccc(C)c1NC(=O)c1cc(S(N)(=O)=O)c(Cl)cc1O` [PCM-0215998], the inhibition at 10 µM came to 23.2%.

Consider `CN(CC(=O)N(Cc1ccc(C2CCCCC2)cc1)c1ccc(C(=O)O)c(O)c1)S(=O)(=O)c1c(F)c(F)c(F)c(F)c1F` [PCM-0215770], for which the inhibition at 10 µM was 82.6%.

Consider `C/C(=C(\CCOC(=O)c1ccccc1)SC(=O)c1ccccc1)N(C=O)Cc1cnc(C)nc1N` [PCM-0216084], for which the inhibition at 10 µM was found to be 4.6%.

On to `O=C(c1ccccc1)c1ccc2nc(NC(=O)c3csc(C4CCN(c5ncnc6ccsc56)CC4)n3)[nH]c2c1` [PCM-0095775], for which the inhibition at 10 µM amounted to 20.1%.

With `CC1(O)CC(c2nc(-c3ccc4ccc(-c5ccccc5)nc4c3)c3c(N)nccn23)C1` (stereo not drawn) [PCM-0214568], the inhibition at 10 µM was 33.1%.

Consider `CC/C=C(\C(=O)N[C@@H]1C(=O)N2C(C(=O)OCOC(=O)C(C)(C)C)=C(COC(N)=O)CS[C@H]12)c1csc(N)n1` [PCM-0215081], for which the inhibition at 10 µM turned out to be 8.6%.

`C[C@@H]1COCCN1c1cc(C2([S@](C)(=N)=O)CC2)nc(-c2ccnc3[nH]ccc23)n1` [PCM-0215530]: the inhibition at 10 µM is -4.1%.

Turning to `CNC(=O)c1cc(Oc2ccc3nc(N[C@@H]4CCCC[C@H]4O)sc3c2)ccn1` [PCM-0215436], the inhibition at 10 µM was -9%.

Regarding `O=CCc1ccccc1` [PCM-0216613], the inhibition at 10 µM worked out at 6.9%.

`Cc1[nH]c(/C=C2\C(=O)Nc3ccccc32)c(C)c1CCC(=O)O` [PCM-0095149]: the inhibition at 10 µM came to 52.4%.

On to `Cc1ccc(-n2nc(C(C)(C)C)cc2NC(=O)Nc2ccc(OCCN3CCOCC3)c3ccccc23)cc1` [PCM-0095136], for which the inhibition at 10 µM amounted to 9.7%.

As for `CN[C@H]1C(=O)N[C@@H]2Cc3ccc(cc3)Oc3cc4cc(c3O[C@@H]3O[C@H](C(=O)O)[C@@H](O)[C@H](O)[C@H]3NC(=O)CCCCCCCCC(C)C)Oc3ccc(cc3Cl)[C@@H](O)[C@@H]3NC(=O)[C@H](NC(=O)[C@@H]4NC(=O)[C@@H](NC2=O)c2cc(cc(O)c2Cl)Oc2cc1ccc2O)c1ccc(O)c(c1)-c1c(O[C@H]2O[C@H](CO)[C@@H](O)[C@H](O)[C@@H]2O)cc(O)cc1[C@@H](C(=O)NCCCN(C)C)NC3=O` [PCM-0215113], the inhibition at 10 µM is 73.2%.

With `CC1(C)CC[C@]2(C(=O)O[C@@H]3O[C@H](CO)[C@@H](O)[C@H](O)[C@H]3O)CC[C@]3(C)C(=CC[C@@H]4[C@@]5(C)CC[C@H](O[C@@H]6O[C@H](C(=O)O)[C@@H](O)[C@H](O)[C@H]6O)C(C)(C)[C@@H]5CC[C@]43C)[C@@H]2C1` [PCM-0216404], the inhibition at 10 µM was 3.1%.

Regarding `CC1(C)CC(=O)c2c(C(F)(F)F)nn(-c3ccc(C(N)=O)c(NC4CCC(O)CC4)c3)c2C1` (stereo not drawn) [PCM-0214567], the inhibition at 10 µM was -36.6%.

For `CC(C)C[C@@H]1NC(=O)[C@@H](C(C)C)NC(=O)[C@@H]2CCCN2C(=O)[C@@H](CC(=O)O)NC(=O)[C@@H](Cc2c[nH]c3ccccc23)NC1=O` [PCM-0215512] (cyclo(L[dW][dD]P[dV])), the inhibition at 10 µM was -5.4%.

For the compound `Cc1cc2c(F)c(Oc3ncnn4cc(OC[C@@H](C)OC(=O)[C@H](C)N)c(C)c34)ccc2[nH]1` [PCM-0094946], the inhibition at 10 µM is -44.8%.

Turning to `CC(=O)OCC(=O)[C@@]12N=C(C)O[C@@H]1C[C@H]1[C@@H]3CCC4=CC(=O)C=C[C@]4(C)[C@H]3[C@@H](O)C[C@@]12C` [PCM-0086410], the inhibition at 10 µM is -7.6%.

For the compound `NC(=O)N/N=C/c1ccc([N+](=O)[O-])o1` [PCM-0085977], the inhibition at 10 µM was 0.8%.

`C=C1C(=O)O[C@@H]2C[C@@]3(C)CCCC(=C)[C@@H]3C[C@H]12` [PCM-0214959]: the inhibition at 10 µM is 15.9%.

On to `Nc1c(CC(=O)O)cccc1C(=O)c1ccccc1` [PCM-0214756], for which the inhibition at 10 µM was -17.2%.

On to `CC(C)(C)n1nc(-c2ccc(Cl)cc2)c2c(N)ncnc21` [PCM-0095568], for which the inhibition at 10 µM was determined as 47.6%.

As for `CNC[C@H](O)[C@@H](O)[C@H](O)[C@H](O)CO` [PCM-0086373], the inhibition at 10 µM was -10.1%.

For the compound `COC(=O)Nc1nc2ccc(C(=O)c3ccc(F)cc3)cc2[nH]1` [PCM-0086402], the inhibition at 10 µM is -3.4%.

Consider `OCc1ccc(O)cc1` [PCM-0215041], for which the inhibition at 10 µM is 9.3%.

Take `Cc1nc(Nc2ccc(F)cc2)nc(N2CCc3ccccc3C2C)c1C` (stereo not drawn) [PCM-0216015]: the inhibition at 10 µM turned out to be 79.3%.

For `NC1(C(=O)N[C@@H](CCO)c2ccc(Cl)cc2)CCN(c2ncnc3[nH]ccc23)CC1` [PCM-0095607], the inhibition at 10 µM turned out to be 33.1%.

On to `COC(=O)Nc1nc2ccc(C(=O)c3cccs3)cc2[nH]1` [PCM-0065378], for which the inhibition at 10 µM was -6.2%.

The record behind these values is paper PMC8041284, “Tunable Methacrylamides for Covalent Ligand Directed Release Chemistry” (Journal of the American Chemical Society, 2021).
